Laboratory results published in article PMC5119973 (Cancer Medicine, 2016).
“And” between values parts separate entries of the source, which are not always exact repeats. Equal values may be shown once.

Experiments:
Experiment in all cases: KINOMEscan active-site competitive binding assay
[1] = target: T1, ERK8 (Homo sapiens, UniProt Q8TD08); settings: slash = two separate measurements
T1 construct: purchased DiscoveRx (KINOMEscan service)
T1 sequence (Q8TD08 1-544): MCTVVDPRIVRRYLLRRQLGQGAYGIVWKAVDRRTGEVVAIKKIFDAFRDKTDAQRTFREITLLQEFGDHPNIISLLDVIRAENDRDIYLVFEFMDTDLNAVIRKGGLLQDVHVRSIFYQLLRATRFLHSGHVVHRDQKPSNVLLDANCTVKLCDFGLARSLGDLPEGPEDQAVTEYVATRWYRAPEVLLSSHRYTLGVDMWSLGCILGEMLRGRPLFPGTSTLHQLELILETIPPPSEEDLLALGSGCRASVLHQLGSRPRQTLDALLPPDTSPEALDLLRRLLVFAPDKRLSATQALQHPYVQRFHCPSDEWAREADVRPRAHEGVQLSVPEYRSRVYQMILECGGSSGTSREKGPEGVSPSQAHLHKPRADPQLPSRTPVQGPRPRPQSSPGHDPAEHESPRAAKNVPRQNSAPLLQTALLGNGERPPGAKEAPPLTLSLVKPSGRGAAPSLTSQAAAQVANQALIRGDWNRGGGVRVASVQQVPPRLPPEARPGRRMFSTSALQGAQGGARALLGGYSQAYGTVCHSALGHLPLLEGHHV

[2] = target: T2, TIE-1 (Homo sapiens, UniProt P35590); settings: slash = two separate measurements
T2 construct: purchased DiscoveRx

[3] = target: T3, ABL1-np (Homo sapiens, UniProt P00519); settings: ABL1-np (not phosphorylated); slash = two separate measurements
T3 construct: purchased DiscoveRx (KINOMEscan service)

[4] = target: T4, MEK5 (Homo sapiens, UniProt Q13163)
T4 construct: purchased DiscoveRx (KINOMEscan service)
T4 sequence (Q13163 1-448): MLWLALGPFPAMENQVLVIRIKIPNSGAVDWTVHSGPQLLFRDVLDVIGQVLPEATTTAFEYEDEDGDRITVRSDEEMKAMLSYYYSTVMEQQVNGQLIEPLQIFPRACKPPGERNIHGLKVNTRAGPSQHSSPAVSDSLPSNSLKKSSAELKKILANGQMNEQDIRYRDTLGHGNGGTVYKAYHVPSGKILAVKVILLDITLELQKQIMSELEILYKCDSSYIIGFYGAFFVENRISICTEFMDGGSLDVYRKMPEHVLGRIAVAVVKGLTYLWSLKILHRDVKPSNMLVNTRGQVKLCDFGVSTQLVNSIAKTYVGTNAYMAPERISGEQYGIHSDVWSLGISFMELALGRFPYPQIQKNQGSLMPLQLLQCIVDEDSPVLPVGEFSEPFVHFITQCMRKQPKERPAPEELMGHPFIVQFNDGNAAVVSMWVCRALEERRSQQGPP

[5] = target: T5, YSK4 (Homo sapiens, UniProt Q56UN5); settings: slash = two separate measurements
T5 construct: purchased DiscoveRx
T5 sequence (Q56UN5 1-1328): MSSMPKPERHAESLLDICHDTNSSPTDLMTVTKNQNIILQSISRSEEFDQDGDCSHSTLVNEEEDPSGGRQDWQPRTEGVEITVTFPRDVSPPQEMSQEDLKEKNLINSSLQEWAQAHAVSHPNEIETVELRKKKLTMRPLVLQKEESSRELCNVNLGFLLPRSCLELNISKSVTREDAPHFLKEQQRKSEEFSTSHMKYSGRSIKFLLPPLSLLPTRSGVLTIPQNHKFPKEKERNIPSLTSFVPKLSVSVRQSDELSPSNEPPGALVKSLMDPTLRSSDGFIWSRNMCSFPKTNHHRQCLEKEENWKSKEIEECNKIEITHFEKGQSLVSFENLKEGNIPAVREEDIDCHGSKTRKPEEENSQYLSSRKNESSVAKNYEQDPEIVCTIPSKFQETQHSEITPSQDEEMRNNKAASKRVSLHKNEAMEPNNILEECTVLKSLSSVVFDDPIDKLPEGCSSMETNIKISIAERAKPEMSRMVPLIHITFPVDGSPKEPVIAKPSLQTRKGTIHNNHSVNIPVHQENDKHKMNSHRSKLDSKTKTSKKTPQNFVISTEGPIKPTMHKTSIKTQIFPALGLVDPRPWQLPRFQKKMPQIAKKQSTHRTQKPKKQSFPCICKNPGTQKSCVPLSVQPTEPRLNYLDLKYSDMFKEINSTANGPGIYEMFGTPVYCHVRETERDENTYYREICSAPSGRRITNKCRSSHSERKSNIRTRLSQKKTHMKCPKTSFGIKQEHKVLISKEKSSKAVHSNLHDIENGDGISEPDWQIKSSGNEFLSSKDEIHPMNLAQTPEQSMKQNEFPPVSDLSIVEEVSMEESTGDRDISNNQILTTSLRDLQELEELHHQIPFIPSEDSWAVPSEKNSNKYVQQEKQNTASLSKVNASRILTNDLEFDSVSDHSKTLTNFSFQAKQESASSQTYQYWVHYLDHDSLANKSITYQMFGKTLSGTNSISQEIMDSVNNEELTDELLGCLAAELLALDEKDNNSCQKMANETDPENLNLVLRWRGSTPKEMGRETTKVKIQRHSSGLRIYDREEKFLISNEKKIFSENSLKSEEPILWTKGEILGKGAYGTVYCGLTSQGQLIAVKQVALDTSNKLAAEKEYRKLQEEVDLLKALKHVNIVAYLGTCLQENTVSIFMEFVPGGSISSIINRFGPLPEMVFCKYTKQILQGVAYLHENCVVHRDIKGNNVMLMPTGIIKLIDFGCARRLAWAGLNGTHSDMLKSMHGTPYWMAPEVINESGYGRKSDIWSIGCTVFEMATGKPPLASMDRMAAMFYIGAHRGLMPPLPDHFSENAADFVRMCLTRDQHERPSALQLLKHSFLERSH

T3 sequence (P00519 whole entry): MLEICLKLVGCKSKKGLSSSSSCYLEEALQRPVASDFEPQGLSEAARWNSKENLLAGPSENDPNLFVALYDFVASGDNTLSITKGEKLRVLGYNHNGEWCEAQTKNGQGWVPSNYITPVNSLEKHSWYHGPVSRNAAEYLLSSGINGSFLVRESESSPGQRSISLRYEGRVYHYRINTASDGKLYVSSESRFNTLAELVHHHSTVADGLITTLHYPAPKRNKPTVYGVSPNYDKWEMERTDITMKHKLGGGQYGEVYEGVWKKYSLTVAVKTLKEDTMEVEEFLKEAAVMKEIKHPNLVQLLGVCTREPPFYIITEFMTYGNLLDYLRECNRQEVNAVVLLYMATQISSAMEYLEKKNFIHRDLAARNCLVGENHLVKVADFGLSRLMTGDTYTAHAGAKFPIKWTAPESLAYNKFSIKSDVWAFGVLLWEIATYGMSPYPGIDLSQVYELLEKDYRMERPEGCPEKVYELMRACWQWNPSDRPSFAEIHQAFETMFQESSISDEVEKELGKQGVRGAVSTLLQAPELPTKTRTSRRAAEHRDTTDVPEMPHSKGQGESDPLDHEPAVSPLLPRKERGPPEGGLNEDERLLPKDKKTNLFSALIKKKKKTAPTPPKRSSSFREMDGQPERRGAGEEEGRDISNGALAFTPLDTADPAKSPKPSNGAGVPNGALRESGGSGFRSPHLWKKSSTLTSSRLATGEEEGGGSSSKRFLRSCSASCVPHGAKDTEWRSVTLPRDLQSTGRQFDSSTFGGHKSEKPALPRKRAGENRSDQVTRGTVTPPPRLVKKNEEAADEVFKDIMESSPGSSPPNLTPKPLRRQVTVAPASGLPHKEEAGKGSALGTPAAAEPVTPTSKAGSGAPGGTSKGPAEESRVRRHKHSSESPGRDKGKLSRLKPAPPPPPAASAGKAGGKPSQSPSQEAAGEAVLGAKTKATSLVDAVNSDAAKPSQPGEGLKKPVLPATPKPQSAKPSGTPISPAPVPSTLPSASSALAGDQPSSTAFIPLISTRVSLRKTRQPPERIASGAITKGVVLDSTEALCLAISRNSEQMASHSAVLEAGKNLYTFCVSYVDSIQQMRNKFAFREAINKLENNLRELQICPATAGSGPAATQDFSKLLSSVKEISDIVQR
T2 sequence (P35590 22-1138): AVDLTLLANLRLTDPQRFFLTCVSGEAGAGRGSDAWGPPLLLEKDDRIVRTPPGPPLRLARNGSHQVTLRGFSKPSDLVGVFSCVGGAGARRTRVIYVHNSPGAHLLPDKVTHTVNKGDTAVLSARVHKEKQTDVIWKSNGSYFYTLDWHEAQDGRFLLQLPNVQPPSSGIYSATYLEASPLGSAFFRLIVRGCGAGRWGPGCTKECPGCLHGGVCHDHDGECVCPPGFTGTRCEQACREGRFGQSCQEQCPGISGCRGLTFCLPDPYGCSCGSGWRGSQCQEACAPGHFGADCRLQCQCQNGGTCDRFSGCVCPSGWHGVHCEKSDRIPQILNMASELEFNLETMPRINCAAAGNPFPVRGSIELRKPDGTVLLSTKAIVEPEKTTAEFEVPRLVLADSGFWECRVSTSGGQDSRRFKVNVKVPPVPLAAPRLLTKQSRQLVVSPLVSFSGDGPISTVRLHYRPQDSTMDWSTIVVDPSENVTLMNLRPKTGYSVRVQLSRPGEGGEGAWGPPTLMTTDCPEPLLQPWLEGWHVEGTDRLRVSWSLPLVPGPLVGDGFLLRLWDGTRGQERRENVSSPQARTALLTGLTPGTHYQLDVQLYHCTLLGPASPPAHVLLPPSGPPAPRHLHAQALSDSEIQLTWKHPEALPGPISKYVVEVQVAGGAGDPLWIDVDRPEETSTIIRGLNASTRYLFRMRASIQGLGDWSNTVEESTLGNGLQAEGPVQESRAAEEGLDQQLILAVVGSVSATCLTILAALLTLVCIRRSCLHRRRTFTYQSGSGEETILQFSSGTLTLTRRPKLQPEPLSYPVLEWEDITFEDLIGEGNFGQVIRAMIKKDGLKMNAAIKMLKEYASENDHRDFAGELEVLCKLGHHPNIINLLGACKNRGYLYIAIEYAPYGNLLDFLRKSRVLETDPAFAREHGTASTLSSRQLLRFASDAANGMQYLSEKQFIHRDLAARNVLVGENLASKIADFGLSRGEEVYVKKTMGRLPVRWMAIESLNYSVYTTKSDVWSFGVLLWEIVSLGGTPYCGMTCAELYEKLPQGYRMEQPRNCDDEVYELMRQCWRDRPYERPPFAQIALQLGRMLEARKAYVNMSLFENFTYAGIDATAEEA

Compound	Kd [1]	Kd [2]	Kd [3]	Kd [4] [nM]	Kd [5]
CNC(=O)c1cc(Oc2ccc(NC(=O)Nc3ccc(Cl)c(C(F)(F)F)c3)c(F)c2)cc[n+]1[O-] [M‐2]	16 nM	48 nM	23 nM	10	55 nM
NC(=O)c1cc(Oc2ccc(NC(=O)Nc3ccc(Cl)c(C(F)(F)F)c3)c(F)c2)cc[n+]1[O-] [M‐5]	26 nM	73 nM	20 nM	10	70 nM
CNC(=O)c1cc(Oc2ccc(NC(=O)Nc3ccc(Cl)c(C(F)(F)F)c3)c(F)c2)ccn1 [Regorafenib, reference compound]	25 nM and 17 nM	30 nM and 27 nM	32 nM and 16 nM	40	38 nM and 94 nM
